These results are taken from US20240025883A1, “PYRIMIDIN-2-YL SULFONAMIDE DERIVATIVES” (Hoffmann-La Roche Inc., priority 2021, published 2024).

The test deals with human GPR17 short isoform (Homo sapiens (Human), UniProt Q13304). The test can be described thus: GPR17 cAMP assay (hGPR17 cAMP, antagonist mode against EC80 of MDL29,951). To be noted: CHO-K1 cells stably expressing human GPR17 short isoform; EC80 of agonist MDL29,951; forskolin 15 μM. It counts as cell-based. The method, boiled down: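 cAMP was read by competitive TR-FRET after a 30 min room-temperature stimulation: antagonists plus EC80 MDL29,951 and 0.5 mM IBMX, followed 5 min later by 15 μM forskolin. Cells were CHO-K1 with stable human GPR17 short isoform in HBSS/HEPES/BSA, pH 7.4; percent activity versus reference antagonist fitted sigmoidally.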
Chain of human GPR17 short isoform (Q13304 29-367): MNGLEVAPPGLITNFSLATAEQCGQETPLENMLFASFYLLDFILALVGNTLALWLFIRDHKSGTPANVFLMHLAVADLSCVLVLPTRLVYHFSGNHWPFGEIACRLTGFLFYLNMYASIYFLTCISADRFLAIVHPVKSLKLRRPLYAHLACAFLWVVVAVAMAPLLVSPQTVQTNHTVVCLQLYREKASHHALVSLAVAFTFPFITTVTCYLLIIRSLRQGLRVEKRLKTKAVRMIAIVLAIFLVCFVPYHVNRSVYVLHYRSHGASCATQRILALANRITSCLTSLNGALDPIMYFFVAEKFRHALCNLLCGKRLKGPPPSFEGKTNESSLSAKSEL
(cAMP levels reflect the balance of adenylyl cyclase and phosphodiesterase activity.)
In the case of `COc1nc(NS(=O)(=O)c2csc3cc(Cl)ccc23)ncc1CCC(F)F` [Example 155, 6-chloro-N-[5-(3,3-difluoropropyl)-4-methoxy-pyrimidin-2-yl]benzothiophene-3-sulfonamide], the IC50 (usually the concentration that gives 50% inhibition) amounted to 116 nM.

For the molecule `COc1nc(NS(=O)(=O)c2c[nH]c3c(OC4CC4)c(Cl)ccc23)ncc1CC(F)F` [Example 127, 6-chloro-7-(cyclopropoxy)-N-[5-(2,2-difluoroethyl)-4-methoxy-pyrimidin-2-yl]-1H-indole-3-sulfonamide], the concentration for half-maximal inhibition (IC50) is 30 nM.

Molecule `COc1nc(NS(=O)(=O)c2c[nH]c3cc(Cl)ccc23)ncc1CCC(F)F` [Example 48, 6-chloro-N-[5-(3,3-difluoropropyl)-4-methoxy-pyrimidin-2-yl]-1H-indole-3-sulfonamide] yielded an IC50 of 26 nM.

`COc1nc(NS(=O)(=O)c2c[nH]c3c(OC4CC4)c(Cl)ccc23)ncc1OCCF` [Example 5, 6-chloro-7-(cyclopropoxy)-N-[5-(2-fluoroethoxy)-4-methoxy-pyrimidin-2-yl]-1H-indole-3-sulfonamide] had an IC50 of 103 nM.

On to `COc1nc(NS(=O)(=O)c2c[nH]c3c(OC)c(Cl)ccc23)ncc1CCC(F)F` [Example 187, 6-chloro-N-[5-(3,3-difluoropropyl)-4-methoxy-pyrimidin-2-yl]-7-methoxy-1H-indole-3-sulfonamide], for which the IC50 was found to be 18 nM.

Molecule `COc1nc(NS(=O)(=O)c2c[nH]c3nc(Br)ccc23)nc(OC)c1CCC#N` [Example 113, 6-bromo-N-[5-(2-cyanoethyl)-4,6-dimethoxy-pyrimidin-2-yl]-1H-pyrrolo[2,3-b]pyridine-3-sulfonamide] registered an IC50 of 21 nM.

For `COc1nc(NS(=O)(=O)c2c[nH]c3cc(Cl)ccc23)ncc1SC(F)F` [Example 37, 6-chloro-N-[5-(difluoromethylthio)-4-methoxy-pyrimidin-2-yl]-1H-indole-3-sulfonamide], the concentration for half-maximal inhibition (IC50) is 68 nM.

`COc1nc(NS(=O)(=O)c2c[nH]c3c(F)c(C(F)F)ccc23)nc(OC)c1CCC#N` [Example 252, N-[5-(2-cyanoethyl)-4,6-dimethoxy-pyrimidin-2-yl]-6-(difluoromethyl)-7-fluoro-1H-indole-3-sulfonamide] showed an IC50 of 14 nM.

Molecule `COc1nc(NS(=O)(=O)c2c[nH]c3cc(Cl)ccc23)ncc1OCCOC(F)F` [Example 9, 6-chloro-N-[5-[2-(difluoromethoxy)ethoxy]-4-methoxy-pyrimidin-2-yl]-1H-indole-3-sulfonamide] showed an IC50 of 218 nM.

Turning to `COc1nc(NS(=O)(=O)c2c[nH]c3c(F)c(Cl)ccc23)nc(OC)c1OCC(F)F` [Example 208, 6-chloro-N-[5-(2,2-difluoroethoxy)-4,6-dimethoxy-pyrimidin-2-yl]-7-fluoro-1H-indole-3-sulfonamide], the IC50 worked out at 25 nM.

Turning to `COc1nc(NS(=O)(=O)c2c[nH]c3cc(Cl)ccc23)nc(OC)c1OCF` [Example 51, 6-chloro-N-[5-(fluoromethoxy)-4,6-dimethoxy-pyrimidin-2-yl]-1H-indole-3-sulfonamide], the IC50 was found to be 94 nM.

On to `COc1nc(NS(=O)(=O)c2c[nH]c3c(OCC#N)c(Cl)ccc23)nc(OC)c1CC(F)F` [Example 294, 6-Chloro-7-(Cyanomethoxy)-N-[5-(2,2-Difluoroethyl)-4,6-Dimethoxy-Pyrimidin-2-Yl]-1H-Indole-3-Sulfonamide], for which the IC50 stood at 24 nM.

Turning to `COc1nc(NS(=O)(=O)c2csc3nc(C(F)F)ccc23)ncc1CC(F)F` [Example 166, N-[5-(2,2-difluoroethyl)-4-methoxy-pyrimidin-2-yl]-6-(difluoromethyl)thieno[2,3-b]pyridine-3-sulfonamide], the IC50 is 1160 nM.

The molecule `COc1nc(NS(=O)(=O)c2c[nH]c3cc(Cl)ccc23)ncc1CCC1COC1` [Example 181, 6-chloro-N-[4-methoxy-5-[2-(oxetan-3-yl)ethyl]pyrimidin-2-yl]-1H-indole-3-sulfonamide] registered an IC50 of 16800 nM.

`COc1nc(NS(=O)(=O)c2c[nH]c3c(F)c(C(F)F)ccc23)nc(OC)c1OCC#N` [Example 253, N-[5-(cyanomethoxy)-4,6-dimethoxy-pyrimidin-2-yl]-6-(difluoromethyl)-7-fluoro-1H-indole-3-sulfonamide] came in with an IC50 of 20 nM.

As for `COc1nc(NS(=O)(=O)c2c[nH]c3c(Cl)cccc23)ncc1CC(F)F` [Example 108, 7-chloro-N-[5-(2,2-difluoroethyl)-4-methoxy-pyrimidin-2-yl]-1H-indole-3-sulfonamide], the IC50 stood at 642 nM.

Molecule `COc1nc(NS(=O)(=O)c2c[nH]c3c(Br)c(Cl)ccc23)ncc1CCC(F)F` [Example 183, 7-bromo-6-chloro-N-[5-(3,3-difluoropropyl)-4-methoxy-pyrimidin-2-yl]-1H-indole-3-sulfonamide] had an IC50 of 23 nM.

For `COc1nc(NS(=O)(=O)c2c[nH]c3nc(Cl)ccc23)nc(OC)c1C` [Example 118, 6-chloro-N-(4,6-dimethoxy-5-methyl-pyrimidin-2-yl)-1H-pyrrolo[2,3-b]pyridine-3-sulfonamide], the IC50 came out at 33 nM.

With `COc1nc(NS(=O)(=O)c2c[nH]c3cc(Cl)ccc23)nc(OC)c1Cl` [Example 11, 6-chloro-N-(5-chloro-4,6-dimethoxy-pyrimidin-2-yl)-1H-indole-3-sulfonamide], the IC50 was determined as 91 nM.

The molecule `COc1cnc(NS(=O)(=O)c2c[nH]c3cc(Cl)ccc23)nc1Cl` [Example 173, 6-chloro-N-(4-chloro-5-methoxy-pyrimidin-2-yl)-1H-indole-3-sulfonamide] came in with a half-inhibitory concentration (IC50) of 877 nM.

On to `COc1nc(NS(=O)(=O)c2c[nH]c3c(F)c(C(F)F)ccc23)ncc1OCCF` [Example 247, 6-(difluoromethyl)-7-fluoro-N-[5-(2-fluoroethoxy)-4-methoxy-pyrimidin-2-yl]-1H-indole-3-sulfonamide], for which the IC50 amounted to 42 nM.

Turning to `COCc1nc(NS(=O)(=O)c2c[nH]c3cc(Cl)ccc23)nc(OC)c1Br` [Example 81, N-[5-bromo-4-methoxy-6-(methoxymethyl)pyrimidin-2-yl]-6-chloro-1H-indole-3-sulfonamide], the IC50 was 5700 nM.

The molecule `COc1nc(NS(=O)(=O)c2c[nH]c3cc(C(C)(C)O)ccc23)ncc1CC(F)F` [Example 274, N-[5-(2,2-difluoroethyl)-4-methoxy-pyrimidin-2-yl]-6-(1-hydroxy-1-methyl-ethyl)-1h-indole-3-sulfonamide] returned an IC50 of 237 nM.

`COc1nc(NS(=O)(=O)c2c[nH]c3cc(Cl)ccc23)nc(Cl)c1OC` [Example 75, 6-chloro-N-(4-chloro-5,6-dimethoxy-pyrimidin-2-yl)-1H-indole-3-sulfonamide]: the IC50 was 946 nM.

Molecule `COc1nc(NS(=O)(=O)c2c[nH]c3c(S(C)(=O)=O)c(Cl)ccc23)ncc1CC(F)F` [Example 277, 6-chloro-N-[5-(2,2-difluoroethyl)-4-methoxy-pyrimidin-2-yl]-7-mesyl-1h-indole-3-sulfonamide] showed an IC50 of 718 nM.

In the case of `COc1nc(NS(=O)(=O)c2c[nH]c3c(F)c(C(F)F)ccc23)nc(OC)c1CC(F)F` [Example 251, N-[5-(2,2-difluoroethyl)-4,6-dimethoxy-pyrimidin-2-yl]-6-(difluoromethyl)-7-fluoro-1H-indole-3-sulfonamide], the 50% inhibitory concentration (IC50) amounted to 22 nM.

The molecule `COc1nc(NS(=O)(=O)c2c[nH]c3c(SC(F)F)c(Cl)ccc23)nc(OC)c1CCC#N` [Example 107, 6-chloro-N-[5-(2-cyanoethyl)-4,6-dimethoxy-pyrimidin-2-yl]-7-(difluoromethylthio)-1H-indole-3-sulfonamide] returned a concentration for half-maximal inhibition (IC50) of 12 nM.

In turn, `COc1nc(NS(=O)(=O)c2csc3nc(Br)ccc23)nc(OC)c1OC(F)F` [Example 269, 6-bromo-N-[5-(difluoromethoxy)-4,6-dimethoxy-pyrimidin-2-yl]thieno[2,3-b]pyridine-3-Sulfonamide] registered an IC50 of 138 nM.

Consider `COc1nc(NS(=O)(=O)c2c[nH]c3cc(Cl)ccc23)ncc1OC(F)(F)CF` [Example 41, 6-chloro-N-[4-methoxy-5-(1,1,2-trifluoroethoxy)pyrimidin-2-yl]-1H-indole-3-sulfonamide], for which the IC50 stood at 21 nM.

The molecule `COc1nc(NS(=O)(=O)c2c[nH]c3cc(Cl)ccc23)nc(OC2CC2)c1Br` [Example 71, N-[5-bromo-4-(cyclopropoxy)-6-methoxy-pyrimidin-2-yl]-6-chloro-1H-indole-3-sulfonamide] had an IC50 of 11500 nM.

Molecule `COc1nc(NS(=O)(=O)c2c[nH]c3nc(C(F)F)ccc23)nc(OC)c1OCC#N` [Example 99, N-[5-(cyanomethoxy)-4,6-dimethoxy-pyrimidin-2-yl]-6-(difluoromethyl)-1H-pyrrolo[2,3-b]pyridine-3-sulfonamide] showed a 50% inhibitory concentration (IC50) of 102 nM.

On to `COc1nc(NS(=O)(=O)c2csc3nc(C(F)F)ccc23)ncc1OCCF` [Example 165, 6-(difluoromethyl)-N-[5-(2-fluoroethoxy)-4-methoxy-pyrimidin-2-yl]thieno[2,3-b]pyridine-3-sulfonamide], for which the IC50 was 1110 nM.

For `COc1nc(NS(=O)(=O)c2c[nH]c3cc(Cl)ccc23)nc(C(F)F)c1Br` [Example 84, N-[5-bromo-4-(difluoromethyl)-6-methoxy-pyrimidin-2-yl]-6-chloro-1H-indole-3-sulfonamide], the IC50 came out at 521 nM.

Turning to `COc1nc(NS(=O)(=O)c2c[nH]c3c(F)c(Cl)ccc23)ncc1OC(F)(F)CF` [Example 215, 6-chloro-7-fluoro-N-[4-methoxy-5-(1,1,2-trifluoroethoxy)pyrimidin-2-yl]-1H-indole-3-sulfonamide], the IC50 was found to be 28 nM.

`COc1nc(NS(=O)(=O)c2c[nH]c3c(C)c(Br)ccc23)ncc1CC(F)F` [Example 184, 6-bromo-N-[5-(2,2-difluoroethyl)-4-methoxy-pyrimidin-2-yl]-7-methyl-1H-indole-3-sulfonamide] gave an IC50 of 29 nM.
